Reference: US4614731A, “Peptide having immunopotentiating activity similar to thymosin alpha1” (Hoffmann-La Roche Inc., priority 1985, dated 1986)
Ends that are not written are not given here.

How the values were obtained:
[1] = test system: T cell differentiation and function; experiment: in vitro and in vivo assay systems designed to measure T cell differentiation and function
Candida albicans = experiment: Growth of Candida albicans in C3 H/HeJ mice treated daily i.p. with thymic derivatives; assay type: in vivo; conditions: for Protection in comparison with control mice: daily i.p. graded doses beginning two days before i.v. challenge with 4×10^4 cells of C. albicans; for C. albicans cell count: average number of organisms in left kidneys of nine mice, days 7, 14 and 21 after infection; for Most active (optimum) daily dose: i.p., resistance to infection with C. albicans; for Potency relative to fraction 5 in ability to induce resistance to infection with C. albicans: ratio of optimum doses
Source text: The biological activity of thymosin alpha1 can be determined by utilizing in vivo assays known in the art. Thus, for example, inbred strains of mice are known to vary in their susceptability to infection with C. albicans. Thus, mice of such strains as C3 H/HeJ or CBA/CaJ are highly susceptible to infection, whereas mice of such strains as C57 Bl/10SNJ or C57 Bl/KsJ were highly resistant to challenge. Since resistance to infection with C. albicans is associated with cell-mediated processes, and therefore with T-lymphocytes, thymic hormones should have an effect on the host response.
Thymosin fraction5, alpha1, or alpha11 was injected daily i.p. in graded doses into three different groups of mice, beginning two days before intravenous challenge with 4×10^4 cells of C. albicans.
Mice were treated daily with the indicated doses of thymosin fraction 5,
thymosin α1 or thymosin α11 and challenged with 4
× 10^4 cells of C. albicans two days after the start of
*Three mice from each set were sacrificed on days 7, 14 and 21 after
infection and the values represent the average number of organisms in the
left kidneys of the nine mice in each set.

[2] = test system: T cell differentiation and function; conditions: several in vitro and in vivo assay systems; cited from earlier work

| Substance | Biological activity relative to thymosin alpha1 [1] | Protection in comparison with control mice (Candida albicans) | C. albicans cell count (Candida albicans; dose 80 ng/mouse daily i.p.) | C. albicans cell count (Candida albicans; dose 160 ng/mouse daily i.p.) | C. albicans cell count (Candida albicans; dose 320 ng/mouse daily i.p.) | C. albicans cell count (Candida albicans; dose 640 ng/mouse daily i.p.) | Most active (optimum) daily dose (Candida albicans) | Potency relative to fraction 5 in ability to induce resistance to infection with C. albicans (Candida albicans) | Activity relative to fraction 5 [2] |
| --- | --- | --- | --- | --- | --- | --- | --- | --- | --- |
| Ac-SDAAVDTSSEITTKDLKEKKEVVEEAENGREAPAN [Thymosin α11] | same quantitative and qualitative biological activity | provided protection | 4200 | 510 | 320 | 1260 | 160-320 ng per mouse | about 30 times |  |
| Thymosin α1: first active peptide isolated and characterized from thymosin fraction 5 (Ac-SDAAVDTSSEITTKDLKEKKEVVEEAEN; ends and bridges not checked; UniProt P06454 2-29, looked up) |  | provided protection | 5870 | 190 | 780 | 1410 | 160-320 ng per mouse | about 30 times | one or more orders of magnitude more active than fraction 5 |
